The results in this text go back to ChEMBL document CHEMBL1649462, “Concentrations of voriconazole in healthy and inflamed lung in rats” (Antimicrob Agents Chemother, 2009).

Data set [1] is described as follows: AUC (0 to 6 hrs) in plasma of healthy Wistar rat at 6 mg/kg, iv administered as single dose after 6 hrs by microdialysis technique. The data set is classed as ADME, organism-based. Further details: time < 6 hr, dose 6 mg/kg, route intravenous.
The test system of data set [2] is Lung. Nature of the data set: fCmax in lung of Wistar rat with LPS-induced severe inflammatory response at 6 mg/kg, iv administered as single dose after 6 hrs by microdialysis technique. The format is ADME, organism-based. On the set-up: dose 6 mg/kg, route intravenous. To be noted: in vivo.
A short description of data set [3]: fCmax in skeletal muscle of healthy Wistar rat at 6 mg/kg, iv administered as single dose after 6 hrs by microdialysis technique. The following applies: in vivo. On the set-up: dose 6 mg/kg, route intravenous. The format is ADME, organism-based, Muscle tissue.
Data set [4] is described as follows: Tmax in plasma of Wistar rat with LPS-induced severe inflammatory response at 6 mg/kg, iv administered as single dose after 6 hrs by microdialysis technique. Further details: dose 6 mg/kg, route intravenous. The data set is classed as ADME, organism-based.
Data set [5] can be described thus: AUC (0 to 6 hrs) in lung of Wistar rat with LPS-induced severe inflammatory response at 6 mg/kg, iv administered as single dose after 6 hrs by microdialysis technique. The format is ADME, organism-based. On the set-up: time < 6 hr, dose 6 mg/kg, route intravenous.
Data set [6] is described as follows: Free AUC (0 to 6 hrs) in skeletal muscle of healthy Wistar rat at 6 mg/kg, iv administered as single dose after 6 hrs by microdialysis technique. Further details: dose 6 mg/kg, route intravenous. The format is ADME, organism-based, Muscle tissue. To be noted: in vivo.
Data set [7] is described as follows: Tmax in plasma of healthy Wistar rat at 6 mg/kg, iv administered as single dose after 6 hrs by microdialysis technique. The format is ADME, organism-based. On the set-up: dose 6 mg/kg, route intravenous.
Data set [8] is described as follows: fTmax in lung of Wistar rat with LPS-induced severe inflammatory response at 6 mg/kg, iv administered as single dose after 6 hrs by microdialysis technique. The format is ADME, organism-based. Further details: dose 6 mg/kg, route intravenous. The following applies: read-out: fTmax (converted).
The nature of data set [9]: Protein binding in female Sprague-Dawley rat plasma at 30 mg/kg, po for 6 days. The format is ADME, organism-based. Further details: dose 30 mg/kg, route oral. To be noted: read-out: PPB (converted).
Data set [10] in a line: AUC (0 to 6 hrs) in plasma of Wistar rat with LPS-induced severe inflammatory response at 6 mg/kg, iv administered as single dose after 6 hrs by microdialysis technique. On the set-up: time < 6 hr, dose 6 mg/kg, route intravenous. The format is ADME, organism-based.
Data set [11] can be described thus: fTmax in skeletal muscle of Wistar rat with LPS-induced severe inflammatory response at 6 mg/kg, iv administered as single dose after 6 hrs by microdialysis technique. The format is ADME, organism-based, Muscle tissue. On the set-up: dose 6 mg/kg, route intravenous. To be noted: read-out: fTmax (converted).
Data set [12] is described as follows: fTmax in skeletal muscle of healthy Wistar rat at 6 mg/kg, iv administered as single dose after 6 hrs by microdialysis technique. The data set is classed as ADME, organism-based, Muscle tissue. Further details: dose 6 mg/kg, route intravenous. To be noted: read-out: fTmax (converted).
The nature of data set [13]: fCmax in skeletal muscle of Wistar rat with LPS-induced severe inflammatory response at 6 mg/kg, iv administered as single dose after 6 hrs by microdialysis technique. The data set is classed as ADME, organism-based, Muscle tissue. Further details: dose 6 mg/kg, route intravenous. The following applies: in vivo.
Data set [14] in a line: AUC (0 to 6 hrs) in skeletal muscle of Wistar rat with LPS-induced severe inflammatory response at 6 mg/kg, iv administered as single dose after 6 hrs by microdialysis technique. The data set is classed as ADME, organism-based. Further details: time < 6 hr, dose 6 mg/kg, route intravenous.
Data set [15] in a line: Cmax in plasma of healthy Wistar rat at 6 mg/kg, iv administered as single dose after 6 hrs by microdialysis technique. On the set-up: dose 6 mg/kg, route intravenous. The data set is classed as ADME, organism-based.
A short description of data set [16]: Half life in plasma of Wistar rat with LPS-induced severe inflammatory response at 6 mg/kg, iv administered as single dose after 6 hrs by microdialysis technique. The format is ADME, organism-based. On the set-up: dose 6 mg/kg, route intravenous.
Data set [17] is described as follows: Protein binding in male Sprague-Dawley rat plasma at 30 mg/kg, po for 6 days. The following applies: read-out: PPB (converted). The format is ADME, organism-based. Further details: dose 30 mg/kg, route oral.
Data set [18] is described as follows: Half life in plasma of healthy Wistar rat at 6 mg/kg, iv administered as single dose after 6 hrs by microdialysis technique. The format is ADME, organism-based. Further details: dose 6 mg/kg, route intravenous.
Data set [19] is described as follows: fTmax in lung of healthy Wistar rat at 6 mg/kg, iv administered as single dose after 6 hrs by microdialysis technique. The data set is classed as ADME, organism-based. On the set-up: dose 6 mg/kg, route intravenous. To be noted: read-out: fTmax (converted).
Data set [20] concerns Lung. Kind of data set: Free AUC (0 to 6 hrs) in lung of healthy Wistar rat at 6 mg/kg, iv administered as single dose after 6 hrs by microdialysis technique. To be noted: in vivo. On the set-up: dose 6 mg/kg, route intravenous. The data set is classed as ADME, organism-based.
Data set [21] in a line: Cmax in plasma of Wistar rat with LPS-induced severe inflammatory response at 6 mg/kg, iv administered as single dose after 6 hrs by microdialysis technique. The format is ADME, organism-based. On the set-up: dose 6 mg/kg, route intravenous.
Data set [22] deals with Lung. Kind of data set: fCmax in lung of healthy Wistar rat at 6 mg/kg, iv administered as single dose after 6 hrs by microdialysis technique. The format is ADME, organism-based. On the set-up: dose 6 mg/kg, route intravenous. To be noted: in vivo.

By AUC(0-t) is commonly meant the area under the concentration-time curve up to a stated or last time point. A lower AUC(0-t) goes with less exposure. Usually Cmax stands for the highest concentration seen after dosing. For orientation: half-life means the time needed for the level to fall by half in the phase considered.

Turning to `C[C@@H](c1ncncc1F)[C@](O)(Cn1cncn1)c1ccc(F)cc1F` [VORICONAZOLE], the exposure AUC(0-t) at 6 h in data set [1] is 19600 ng·h/mL; in [5] it was 8170 ng·h/mL; in [10], 22700 ng·h/mL; in [14], 8450 ng·h/mL. Also, the fCmax in the data set on Lung [2] came to 2.3 mg/L; in data set [3] it was 2.2 mg/L; in [13], 2.2 mg/L; in the data set on Lung [22] it was 2.6 mg/L. Further, the Tmax in data set [4] is 0.25 h; in data set [7] it was 0.817 h; in data set [8], 1.87 h; in data set [11], 2.17 h; in data set [12], 3.25 h; in data set [19], 2.28 h. For the same molecule, the results for the fAUC (in data set [6]; in the data set with Lung [20]) were 530 mg·min/L and 608 mg·min/L, respectively. For the same molecule, the fraction unbound at 144 h in data set [9] and in [17] was 0.34 throughout. Also, the Cmax in data set [15] is 5400 ng/mL; in data set [21], 6300 ng/mL. In addition, the half-life amounted to 11.3 h in data set [16] and 10.2 h in data set [18].
